In patent US20060111341A1, “Use of galanthamine and the derivatives thereof in the production of medicaments” (priority 2003, published 2006):
Like-named read-outs stand apart in the source and are kept apart here.

Experiments:
Acetylcholinesterase [1] = target: T1, Acetylcholinesterase (Homo sapiens, UniProt P22303)
[2] = system: medicament-induced delirium; conditions: one patient, WO 00/32185 A; cited from earlier work
post-operative delirium = assay: Prospective clinical study for the prevention of post-operative delirium (Confusion Assessment Method); assay type: in vivo, patients
Text: In order to be able to test the effect of the pharmaceutical forms of the invention on patients, a prospective study was accomplished for the prevention of post-operative delirium at five Austrian orthopedic hospitals (two in Vienna, and one each in Linz, Graz and Krems) and all together 229 patients, who underwent hip replacement and/or combined planned surgical intervention for implantation were part of the study.
Hip/Knee endoprosthesis. The patients of the group were given in the evening following the surgical intervention (day 0) 8 mg galanthamine HCl, then on the days 1 to 4 in each case 4 mg in the morning and at noon and 8 mg in the evening, i.e., 16 mg t.i.d. to the fifth day. […], the dose was reduced to 8 mg b.i.d., starting from that day until the 6th day when no more treatment took place.
For the determination of the effectiveness with the help of the “Confusion Assessment Method” (Lit.14) 155 patients could be consulted. In the group of placebos 7 patients (8, 5%) developed an post-operative delirium, in the galanthamine group only one patient (1, 4%) developed post-operative delirium, which corresponds to a statistically significant difference (p=0, 044).

Acetylcholinesterase [3] = target: T1, Acetylcholinesterase; assay: biochemical
Butyrylcholinesterase = Butyrylcholinesterase (Homo sapiens, UniProt P06276); assay: biochemical
Sequence of Butyrylcholinesterase (P06276 29-602): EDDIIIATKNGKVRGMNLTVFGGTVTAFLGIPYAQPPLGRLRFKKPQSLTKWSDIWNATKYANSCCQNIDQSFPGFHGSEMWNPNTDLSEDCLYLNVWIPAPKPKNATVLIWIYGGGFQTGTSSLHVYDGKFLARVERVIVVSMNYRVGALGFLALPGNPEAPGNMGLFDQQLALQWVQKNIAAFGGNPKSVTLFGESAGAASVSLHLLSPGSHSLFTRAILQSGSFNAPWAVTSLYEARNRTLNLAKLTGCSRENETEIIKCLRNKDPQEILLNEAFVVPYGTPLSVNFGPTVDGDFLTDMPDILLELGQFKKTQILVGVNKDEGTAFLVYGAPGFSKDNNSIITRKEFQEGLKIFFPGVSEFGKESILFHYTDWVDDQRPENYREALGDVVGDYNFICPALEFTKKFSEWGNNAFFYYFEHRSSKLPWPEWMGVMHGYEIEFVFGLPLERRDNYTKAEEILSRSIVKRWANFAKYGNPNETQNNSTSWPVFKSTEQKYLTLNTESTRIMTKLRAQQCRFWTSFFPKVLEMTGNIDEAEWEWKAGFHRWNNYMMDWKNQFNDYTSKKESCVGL

T1 sequence (P22303 32-614): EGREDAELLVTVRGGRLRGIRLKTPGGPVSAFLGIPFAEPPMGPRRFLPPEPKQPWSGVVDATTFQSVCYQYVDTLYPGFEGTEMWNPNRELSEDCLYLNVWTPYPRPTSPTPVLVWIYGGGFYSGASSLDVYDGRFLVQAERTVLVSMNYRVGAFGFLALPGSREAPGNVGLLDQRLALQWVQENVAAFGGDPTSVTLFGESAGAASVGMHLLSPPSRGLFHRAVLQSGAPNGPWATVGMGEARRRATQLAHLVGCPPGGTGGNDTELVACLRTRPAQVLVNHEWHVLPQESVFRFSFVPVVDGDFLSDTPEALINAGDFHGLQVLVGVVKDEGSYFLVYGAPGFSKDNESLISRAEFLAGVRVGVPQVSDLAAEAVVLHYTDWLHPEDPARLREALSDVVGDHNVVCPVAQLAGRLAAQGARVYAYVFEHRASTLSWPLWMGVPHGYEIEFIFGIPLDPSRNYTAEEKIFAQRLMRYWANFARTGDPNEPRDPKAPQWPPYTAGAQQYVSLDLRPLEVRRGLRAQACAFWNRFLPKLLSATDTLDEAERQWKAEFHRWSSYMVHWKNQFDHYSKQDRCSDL

| SMILES | IC50 (Acetylcholinesterase [3]) [µM] | IC50 (Butyrylcholinesterase) [µM] | also measured |
| --- | --- | --- | --- |
| COc1cc2c(cc1OC)C(=O)C(CCCCN1CC[C@@]34C=C[C@H](O)C[C@@H]3Oc3c(OC)ccc(c34)C1)C2 (some centres unmarked) [Nr 167] | – | – | IC50 (Acetylcholinesterase [1]): 0.02 µM |
| CCN(C)C(=O)Oc1cccc([C@H](C)N(C)C)c1 [rivastigmine] | – | – | treatment of delirium after lithium intoxication [2]: successfully treated |
| COc1ccc2c3c1O[C@H]1C[C@@H](O)C=C[C@@]31CCN(C)C2 [galanthamine] | – | – | patients who developed post-operative delirium (number) (post-operative delirium; hip/knee endoprosthesis patients, oral galanthamine day 0 to 5, Confusion Assessment Method, 155 patients evaluated, placebo 7 patients): one; improvement of the symptoms of acute POD (post-operative delirium; oral administration, patients with limited cognitive ability with acute POD): unexpected and large improvement of the symptoms; observed side effects of galanthamine administration (post-operative delirium; oral administration, post-operative patients): very small; patients who developed post-operative delirium (percent) (post-operative delirium; po, 0 h): 1, 4% |
| CCOC(=O)CCN1CCC23C=C[C@H](O)CC2Oc2c(OC)cc(Br)c(c23)C1 (mixture of isomers) [Nr 55] | > 100 | 19 | – |
| COc1ccc2c3c1OC1C[C@@H](O)C=CC31CCN(c1nc(OCCCN(C)C)nc(OCCCN(C)C)n1)C2 (mixture of isomers) [Nr 94] | 70 | 40 | – |
| COc1cc(C)c2c3c1OC1C[C@@H](O)C=CC31CC[N+](C)(Cc1ccccc1)C2 (mixture of isomers) [Nr 69] | 47 | 0.7 | – |
| COc1ccc2c3c1OC1C/C(=N/N(C)C)C=CC31CCN(C)C2 (racemic) [Nr 24] | 80 | 60 | – |
| COc1ccc2c3c1O[C@H]1C[C@@H](O)C=C[C@@]31CCN(C(=O)Nc1cccc3ccccc13)C2 [Nr 267] | 70 | > 100 | – |
| COc1ccc2c3c1O[C@H]1C[C@@H](O)C=C[C@@]31CCN(C(=S)Oc1ccccc1)C2 [Nr 149] | 7.2 | > 100 | – |
| COc1ccc2c3c1O[C@H]1C[C@@H](O)C=C[C@@]31CCN(C)C2C#N (some centres unmarked) [Nr 133] | 0.8 | > 100 | – |
| C#CC[N+]1(C)CCC23C=C[C@H](O)CC2Oc2c(OC)cc(C)c(c23)C1 (mixture of isomers) [Nr 68] | 78 | 2.5 | – |
| COc1cc(N)c2c3c1O[C@H]1C[C@@H](O)C=C[C@@]31CCN(C)C2 [Nr 48] | 77 | 4.9 | – |
| C=CCNC(=S)N1CCC23C=C[C@H](O)CC2Oc2c(OC)ccc(c23)C1 (mixture of isomers) [Nr 91] | 21 | > 100 | – |
| CCOC(=O)NN(CN1CC[C@@]23C=C[C@H](O)C[C@@H]2Oc2c(OC)ccc(c23)C1)C(=O)OCC [Nr 159] | 3 | > 100 | – |
| COc1ccc2c3c1O[C@H]1C[C@@H](O)C=C[C@@]31CCN(C(=O)NC(C)C)C2 [Nr 114] | 2.6 | 10 | – |
| COc1ccc2c3c1OC1C[C@@H](O)C=CC31CCN(CCCN1CC3CC1CN3c1ccccc1)C2 (mixture of isomers) [Nr 60] | 24 | 7.5 | – |
| COc1ccc2c3c1OC1C[C@@H](O)C=CC31CCC(N)C2 (mixture of isomers) [Nr 140] | 5.3 | > 100 | – |
| CNC(=S)N1CCC23C=C[C@H](O)CC2Oc2c(OC)cc(Br)c(c23)C1 (mixture of isomers) [Nr 71] | 31 | 20 | – |
| COc1ccc2c3c1OC1C[C@@H](O)C=CC31CCN(c1ccnc(OCCCN(C)C)n1)C2 (mixture of isomers) [Nr 96] | 7.4 | 36 | – |
